Results published in publication PMC2810320 (Journal of the American Chemical Society, 2010).

Key:
[1] = molecular target: T1, porcine bc1 complex (Sus scrofa, UniProt P24964); test: Succinate-cytochrome c reductase; format: biochemical; settings: for ΔG ΔGexp.: ΔGexp. = −RTlnKi
[2] = molecular target: T1, porcine bc1 complex; test: Ubiquinol-cytochrome c reductase; format: biochemical
[3] = DBH2 and cytochrome c as substrates, pH 6.5, 750 µM lauryl maltoside

T1 sequence (P24964 whole entry, one chain of several): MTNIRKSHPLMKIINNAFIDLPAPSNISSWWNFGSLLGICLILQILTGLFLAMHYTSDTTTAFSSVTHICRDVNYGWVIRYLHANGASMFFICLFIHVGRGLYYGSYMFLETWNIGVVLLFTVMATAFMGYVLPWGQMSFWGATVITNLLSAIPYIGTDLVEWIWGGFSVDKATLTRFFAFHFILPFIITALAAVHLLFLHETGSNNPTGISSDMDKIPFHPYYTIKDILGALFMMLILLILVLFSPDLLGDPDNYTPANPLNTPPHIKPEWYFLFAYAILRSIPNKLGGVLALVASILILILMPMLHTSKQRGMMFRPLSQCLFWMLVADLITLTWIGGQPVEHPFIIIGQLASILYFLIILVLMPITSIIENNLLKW

SMILES	ΔG ΔGexp. [1]	also measured
CO/C=C(/C(=O)OC)c1ccccc1COc1cc(-c2ccccc2OCc2ccccc2)nn1C [Compound 6c]	-10.79 kcal/mol	
CO/C=C(/C(=O)OC)c1ccccc1Oc1cc(Oc2ccccc2C#N)ncn1 [AZ, azoxystrobin, reference compound]	-8.92 kcal/mol	
CO/C=C(/C(=O)OC)c1ccccc1COc1cc(-c2ccccc2OC)nn1C [Compound 6a]	-10.29 kcal/mol	
CO/C=C(/C(=O)OC)c1ccccc1COc1cc(-c2cc(Cl)ccc2O)nn1C [Compound 5c]	-12.63 kcal/mol	type of inhibition with respect to substrate cytochrome c ([1]; kobs independent of cytochrome c concentration, 5 nM 5c): non-competitive inhibitor; kon ([1]; pH 7.4, read-out: apparent rate constant A (association rate constant k+0)): 6.31e+06 ± 360000 M⁻¹ s⁻¹; koff ([1]; pH 7.4, read-out: apparent rate constant B (dissociation rate constant k−0)): 0.00358 s⁻¹; fold improved binding affinity compared to AZ ([1]; ratio of Ki values, vs AZ): about 522 fold; Ki [2]: 2.6 ± 0.1 nM; microscopic inhibition rate constant k+0 [2, 3]: 1.85e+06 ± 30000 M⁻¹ s⁻¹; microscopic inhibition rate constant k−0 [2, 3]: 0.0048 ± 0.00018 s⁻¹; Ki fold higher than that measured from succinate-cytochrome c reductase activity inhibition ([2]; DBH2 assay Ki vs SCR assay Ki): about 5 fold; type of inhibition with respect to substrate ubiquinol ([2]; varying DBH2 20–115 µM): competitive inhibitor
CO/C=C(/C(=O)OC)c1ccccc1COc1cc(-c2ccccc2O)nn1C [Compound 5a]	-12.19 kcal/mol	
CO/C=C(/C(=O)OC)c1ccccc1COc1cc(-c2cc(C)ccc2OC)nn1C [Compound 6b]	-10.52 kcal/mol	
CO/N=C(/C(=O)OC)c1ccccc1COc1ccccc1C [KM, kresoxim-methyl, reference compound]	-9.28 kcal/mol	
CO/N=C(/C(=O)OC)c1ccccc1COc1cc(-c2ccccc2O)nn1C [Compound 5d]	-11.50 kcal/mol	
CO/C=C(/C(=O)OC)c1ccccc1COc1cc(-c2cc(C)ccc2O)nn1C [Compound 5b]	-11.62 kcal/mol	
COC(=O)N(OC)c1ccccc1COc1ccn(-c2ccc(Cl)cc2)n1 [PY, pyraclostrobin, reference compound]	-11.59 kcal/mol	
CO/C=C(/C(=O)OC)c1ccccc1COc1cc(-c2ccccc2OC(=O)c2ccc(F)cc2)nn1C [Compound 6d]	-9.56 kcal/mol	
